# Measured values taken from article PMC6710338, “Turning a Collagenesis-Inducing Peptide Into a Potent Antibacterial and Antibiofilm Agent Against Multidrug-Resistant Gram-Negative Bacteria” (Frontiers in Microbiology, 2019).
# Where two headings read alike, the source gives them in different places. Peptide text beside a SMILES is read from it.
# How the values were obtained:
# [1] = system: multidrug-resistant isolates of Klebsiella pneumoniae, E. coli, and P. aeruginosa; assay type: cell-based
# Protocol: (§1) The minimum inhibitory concentration (MIC) of synthetic peptides was determined using the broth microdilution method in cation-adjusted Mueller-Hinton broth (MHB2 – Sigma-Aldrich, St. Louis, MO, United States), according to the recommendations of the Clinical and Laboratory Standards Institute ([CLSI, 2012]), against four reference strains, namely, P. aeruginosa ATCC 27853, E. coli ATCC 25922, S. aureus ATCC 25923 and Enterococcus faecalis ATCC 29212. MIC values of peptide 3.1-PP4 were also determined against MDR clinical isolates of P. aeruginosa (PA002, PA004, Pa3, Pa4), E. coli (Ec1, Ec2, EC001, EC002, EC003) and K. pneumoniae (KP004, KP007, KP010). The peptides were tested in the concentration range of 1–1024 μg/mL. The minimum bactericidal concentration (MBC) was determined as previously reported ([Bessa et al., 2018]).
# In view of the above results, peptide conjugate 3.1-PP4 was selected for further investigation of its activity against MDR isolates of three Gram-negative bacterial species, namely, P. aeruginosa (four isolates), E. coli (five isolates), and K. pneumoniae (four isolates), whose antimicrobial resistance patterns are provided in the Supplementary Table S1. […]
# [2] = system: MDR clinical isolates of K. pneumoniae (KP004, KP007, KP010); assay type: cell-based, Klebsiella pneumoniae; details: for MIC: MHB2
# Protocol: as §1
# In view of the above results, peptide conjugate 3.1-PP4 was selected for further investigation of its activity against MDR isolates of three Gram-negative bacterial species, namely, P. aeruginosa (four isolates), E. coli (five isolates), and K. pneumoniae (four isolates), whose antimicrobial resistance patterns are provided in the Supplementary Table S1. MDR isolates of K. pneumoniae were included in this analysis given (i) the high prevalence of K. pneumoniae in HAI ([Zheng et al., 2017]), (ii) that K. pneumoniae isolates used are carbanepem-resistant strains of an Enterobacteriaceae species, meaning that they are class 1 priority pathogens for the research and development of new antibiotics according to the WHO ([WHO, 2017]), and (iii) K. pneumoniae bacteria are usually better biofilm producers than the other Enterobacteriaceae species used, E. coli ([Reisner et al., 2006]). MIC values obtained are shown in Table 3, and confirm peptide’s 3.1-PP4 potent action against Gram-negative bacteria, including MDR isolates, with a selectivity index (SI), i.e., ratio of IC50 values for mammalian vs. bacterial cells, ranging from ca. 9–69. In fact, for P. aeruginosa and E. coli, MIC against MDR isolates were in the same range, or below, of those previously found for ATCC reference strains (Table 2). For K. pneumoniae, MIC values ranged between 1 and 4 μM, which is remarkable.
# [3] = system: MDR P. aeruginosa isolates (PA002, PA004, Pa3); assay: Inhibition of biofilm formation, crystal violet assay; assay type: cell-based, Pseudomonas aeruginosa; details: in TSB
# Protocol: The ability of peptide 3.1-PP4 to inhibit the biofilm formation by three P. aeruginosa isolates (PA002, PA004, Pa3) and by three K. pneumoniae isolates (KP004, KP007 and KP010) was assessed at concentrations equal to the MIC, 1/2 × MIC and 1/4 × MIC in tryptic soy broth – (TSB – Liofilchem s.r.l., Italy) using the crystal violet assay as reported by [Gomes et al. (2014)]. Two independent experiments were performed in triplicate.
# Some of the MDR isolates of P. aeruginosa and K. pneumoniae were randomly selected to form biofilms in the absence (controls) and presence (at MIC, 1/2 × MIC and 1/4 × MIC) of the peptide 3.1-PP4. In this assay, the test compounds were used at sub-inhibitory concentrations, since if they had been present at the MIC or higher concentrations, bacteria would be killed before starting to produce the biofilms.
# FIGURE 1 Biofilm biomass quantitation of biofilms formed in the presence of peptide 3.1-PP4. Biofilms of three MDR P. aeruginosa (PA002, Pa3, and PA004) and of three MDR K. pneumoniae (KP004, KP007, and KP010) were formed in the presence of the peptide at three different concentrations, MIC, 1/2 × MIC, and 1/4 × MIC. Control biofilms were grown in absence of the peptide. Two independent experiments were performed in triplicate. Error bars represent SD. […]
# [4] = system: preformed biofilms of MDR K. pneumoniae isolates; assay: Biofilm metabolic activity (MTT); assay type: cell-based, Klebsiella pneumoniae; details: 20 × MIC, 24 h at 37°C, absorbance 570 nm
# Protocol: The respective control biofilms were equally formed but in absence of the peptide (only TSB medium was used). Afterward, the bacterial metabolic activity of biofilms was quantified after adding 3-(4,5-dimethylthiazole-2-yl)-2,5-diphenyl tetrazolium bromide (MTT, 0.5 mg/mL – Sigma-Aldrich, St. Louis, MO, United States) for 3 h at 37°C in the dark. DMSO was used to dissolve the formazan crystals formed and the absorbance at 570 nm was measured. Two independent experiments were performed in four replicates.
# The influence of the peptide on the metabolic activity of preformed biofilms of one P. aeruginosa (PA004) and three K. pneumoniae (KP004, KP007, and KP010) isolates was also assessed, through a standard MTT assay.
# [5] = system: biofilms of PA004, KP007, and KP010; assay: CLSM imaging of biofilms after Live/Dead staining; assay type: cell-based, P. aeruginosa and K. pneumoniae; details: qualitative
# Protocol: For confocal laser scanning microscopy (CLSM) imaging, 24 h biofilms of PA004, KP007, and KP010 were formed in μ-Dish (35 mm, high), ibidi Polymer Coverslips (ibidi GmbH, Planegg-Martinsried, Germany) as previously described by [Bessa et al. (2018)]. Biofilms were non-treated – controls (only medium was used) or treated with 3.1-PP4 at a concentration of 20 × MIC. After 24 h, all biofilms were stained using the LIVE/DEAD^TM BacLight^TM bacterial viability kit (Molecular Probes, Thermo Fisher Scientific, MA, United States). Biofilms were visualized under a laser scanning confocal system Leica TCS SP5 II (Leica Microsystems, Germany), equipped with an inverted (i) microscope Leica DMI6000-CS, using a HC PL APO CS 63x/1.30 Glycerine 21°C objective and the lasers Diode 405 nm and DPSS561 561 nm, and (ii) the LAS AF software.
# To gain further insight into the peptide’s effects on the bacterial biofilms, a Live/Dead staining assay using CLSM was carried out, where untreated and peptide-treated biofilms delivered the images depicted in Figure 2. […] Noteworthy, only bacterial cells, not biofilm matrix, are stained when the Live/Dead staining is used, which means that only cells within the biofilm are observed.
compound,measurement,setting,value
CC(C)C[C@H](NC(=O)[C@H](Cc1c[nH]c2ccccc12)NC(=O)[C@H](CCCCN)NC(=O)[C@H](CC(C)C)NC(=O)[C@H](CC(C)C)NC(=O)[C@H](CCCCN)NC(=O)[C@@H](N)CCCCN)C(=O)N[C@@H](CC(C)C)C(=O)N[C@@H](CCCCN)C(=O)N[C@@H](CC(C)C)C(=O)N[C@@H](CC(C)C)C(=O)N[C@@H](CCCCN)C(=O)N[C@H](C(=O)N[C@H](C(=O)N[C@@H](CCCCN)C(=O)N[C@@H](CO)C(N)=O)[C@@H](C)O)[C@@H](C)O [Peptide 3.1-PP4] (H-KKLLKWLLKLLKTTKS-NH2; N-terminus assumed),MIC values against multidrug-resistant isolates,[1],0.5 to 4.1 µM
same,MIC,[2]; MDR K. pneumoniae isolate KP004,4 µg/mL
same,MIC,[2]; MDR K. pneumoniae isolate KP007,8 µg/mL
same,MIC,[2]; MDR K. pneumoniae isolate KP010,2 µg/mL
same,MIC values for K. pneumoniae,"[2]; MDR clinical isolates of (KP004, KP007, KP010)",1 to 4 µM
same,biofilm formation (crystal violet absorbance at 595 nm),"[3]; peptide at 1/2 and 1/4 of the MIC, three P. aeruginosa isolates",does not significantly inhibit biofilm formation
same,biofilm formation (crystal violet absorbance at 595 nm),"[3]; peptide at MIC, exception isolate PA002, two experiments in triplicate",no biofilm was actually produced
same,% reduction of metabolic activity in peptide-treated biofilms,"[4]; isolate KP004, 24 h preformed biofilm",79%
same,% reduction of metabolic activity in peptide-treated biofilms,"[4]; isolate KP007, 24 h preformed biofilm",40%
same,% reduction of metabolic activity in peptide-treated biofilms,"[4]; isolate KP010, 24 h preformed biofilm",77%
same,"ratio of red- to green-stained bacterial cells (Live/Dead, CLSM)","[5]; 24 h biofilms of PA004, KP007, KP010 treated 24 h at 20 × MIC, vs untreated",consistently higher in peptide-treated
same,"impact on biofilm (Live/Dead, CLSM)","[5]; isolate KP010, 24 h biofilm treated 24 h at 20 × MIC",significant biofilm disaggregation
